Data from patent publication US20260209297A1, “ANTIMICROBIAL PEPTIDES AND MODIFICATIONS THEREOF” (priority 2022, published 2026).
In brackets after ≈: the same amount, converted by molar mass. Positions of bridges follow the written chain, without caps; N, C: chain ends. Residues, ends and D or L forms follow the SMILES beside them.

B1: PD127.1.1: SEQ ID NO: 732 with N-terminal alanine; wild-type defensin-like protein, expressed in Pichia pastoris (protein, listed as Potentilla micrantha)
chain: GACPLVQKRSKTWSGFCGSSNNCDKQCRTWEKAKHGACHATGDLKGTPRLKLRSCHARRSKDH
modifications: N-terminal alanine added
notes: wild-type defensin-like protein, expressed in Pichia pastoris
B2: PD97.1.1: SEQ ID NO: 608 with N-terminal alanine; Rubus chingii wild-type defensin, expressed in Pichia pastoris (protein, listed as Rubus chingii)
chain: GACPLVSKRSKTWSGFCGSSNNCNKQCRSWESAQHGACHNTYKTVLGVKVISGRACFCYFCKKHT
modifications: N-terminal alanine added
notes: Rubus chingii wild-type defensin, expressed in Pichia pastoris
B3: PD91.1.1: SEQ ID NO: 578 with N-terminal alanine; Setaria viridis wild-type defensin, expressed in Pichia pastoris (protein, listed as Setaria viridis)
chain: AYMCTTQNRFFHGRCVNNLNCASSCVHGRLGTGGHCATRKRSAADPGVDIDWVWNRRICVCVFQC
modifications: N-terminal alanine added
notes: Setaria viridis wild-type defensin, expressed in Pichia pastoris

Key:
[1] = test system: Fusarium graminearum PH-1; assay type: cell-based; conditions: for F. graminearum PH-1 MIC Day 1: Fusarium graminearum PH-1, 96-well, resazurin viability; for MIC against F. graminearum: F. graminearum PH-1, Example 7
Botrytis cinerea T-4 = conditions: Table 18

Molecule | F. graminearum PH-1 MIC Day 1 [1] [µM] | further results
PD83.1.1: SEQ ID NO: 542 with N-terminal alanine; Eucalyptus grandis wild-type defensin, expressed in Pichia pastoris (RMCESQSHKFHGLCMSDRTCVVVCKEEDFDDGKCRGFRHRCFCRKPC; N-terminal alanine added; listed as Eucalyptus grandis) | >12 | –
CC(C)C[C@@H]1NC(=O)[C@@H](NC(=O)[C@H](C)NC(=O)CN)CSSC[C@@H](C(=O)N[C@@H](Cc2ccc(O)cc2)C(N)=O)NC(=O)[C@H](Cc2c[nH]cn2)NC(=O)[C@H](CCCNC(=N)N)NC(=O)[C@H](Cc2ccc(O)cc2)NC(=O)[C@H](Cc2ccc(O)cc2)NC(=O)[C@H](Cc2c[nH]c3ccccc23)NC(=O)[C@H](Cc2ccccc2)NC(=O)[C@H](Cc2ccccc2)NC(=O)CNC(=O)[C@H](Cc2ccc(O)cc2)NC(=O)[C@H](Cc2c[nH]cn2)NC(=O)[C@H](CCCCN)NC(=O)[C@H](CO)NC(=O)[C@H](Cc2c[nH]cn2)NC(=O)[C@H](CCCNC(=N)N)NC(=O)[C@H](CC(N)=O)NC(=O)[C@H](CCCCN)NC1=O [GMAOe1C_V4] (H-GACLKNRHSKHYGFFWYYRHCY-NH2; disulfide 3-21; N-terminus assumed) | – | MIC (μM) SFM (Botrytis cinerea T-4; SFM): 1.5 µM (≈ 4.25 µg/mL); MIC (μM) (SFM + 100 mM NaCl) (Botrytis cinerea T-4): 6 µM
PD92.1.1: SEQ ID NO: 583 with N-terminal alanine; Trifolium pratense wild-type defensin, expressed in Pichia pastoris (RKCESKRRWIYGNCLSDEKCASDCLVKGFLFGKCRGYDNRCYCKKPRC; N-terminal alanine added; Trifolium pratense) | 3 | –
PD126.1.1: SEQ ID NO: 730 with N-terminal alanine; wild-type defensin-like protein, expressed in Pichia pastoris (KLCERRSKTWTGWCAKTSHCNKQCKDWERVEHGACHGEFLEKPVSAISNAHCKISF; N-terminal alanine added; listed as Prunus armeniaca) | >12 | –
PD94.1.1: SEQ ID NO: 593 with N-terminal alanine; Solanum lycopersicum wild-type defensin, expressed in Pichia pastoris (KLCQYHSETFHGVCVTGNNCNRHCQRENFEGGRCHGIRHYRCVCYRTC; N-terminal alanine added; listed as Solanum lycopersicum) | >12 | –
PD99.1.1: SEQ ID NO: 616 with N-terminal alanine; Theobroma cacao wild-type defensin, expressed in Pichia pastoris (KLCQKRSKTWTGPCIKTKNCDHQCRKWEKAQHGACHWQWPGFACFCYVNC; N-terminal alanine added; Theobroma cacao) | 0.75 | MIC against F. graminearum [1]: 0.75 µM
PD124.1.1: SEQ ID NO: 723 with N-terminal alanine; Rubus argutus wild-type defensin, expressed in Pichia pastoris (RICEVPSKTFIGLCFKDTNCIVRCRSEGYGYGKCSHFRRRCRCFKPCP; N-terminal alanine added; listed as Rubus argutus) | 2 | –
PD120.1.1: SEQ ID NO: 706 with N-terminal alanine; Setaria italica wild-type defensin, expressed in Pichia pastoris (DRCETHSRTYKGRCNNHNCWSICITEGNTGGFCKGTLLLKCMCTSEC; N-terminal alanine added; listed as Setaria italica) | 12 | –
PD96.1.1: SEQ ID NO: 603 with N-terminal alanine; Thlaspi arvense wild-type defensin, expressed in Pichia pastoris (RMCESKSHEFKGFCTKWRICRDVCITEGFTDGGCHGVLRHCVCKKPCLLSN; N-terminal alanine added; Thlaspi arvense) | 0.75 | MIC against F. graminearum [1]: 0.75 µM
PD84.1.1: SEQ ID NO: 546 with N-terminal alanine; Striga asiatica wild-type defensin, expressed in Pichia pastoris (KICEYKSERFWGVCLSDIKCADVCKDESFESGDCQGLRRRCMCYNHC; N-terminal alanine added; listed as Striga asiatica) | >12 | –
PD85.1.1: SEQ ID NO: 551 with N-terminal alanine; Panax ginseng wild-type defensin, expressed in Pichia pastoris (KLCEKASLTWSGKCGNTQNCDKQCQNWESAKHGACHKRPTWKCFCYSDC; N-terminal alanine added; Panax ginseng) | >12 | –
PD128.1.1: SEQ ID NO: 734 with N-terminal alanine; wild-type defensin-like protein, expressed in Pichia pastoris (RVCLRRSKTWTGFCGNTRGFDSQCKRWECALHGACHC; N-terminal alanine added; listed as Lepidium sativum) | >12 | –
PD82.1.1: SEQ ID NO: 538 with N-terminal alanine; Pinus sylvestris wild-type defensin, expressed in Pichia pastoris (RTCLSKSHRFHGYCVRSSSCKEICQTERFLSGECRHTHLGNRRCFCEKPC; N-terminal alanine added; listed as Pinus sylvestris) | 1.5 | –
PD89.1.2: SEQ ID NO: 569 with N-terminal alanine; Crambe maritima wild-type defensin, expressed in Pichia pastoris (KLCRKPSGTWSGLCANSDSCRKQCINLEKAKDGSCKYKFPAHKCFCYY; N-terminal alanine added; listed as Crambe maritima) | 12 | –
PD121.1.1: SEQ ID NO: 711 with N-terminal alanine; Setaria italica wild-type defensin, expressed in Pichia pastoris (RHCLSQSHHFKGLCLSSSNCANVCRVERFPDGECQTTAGTRKCFCKRIC; N-terminal alanine added; listed as Setaria italica) | 1.5 | –
PD88.1.1: SEQ ID NO: 565 with N-terminal alanine; Fraxinus excelsior wild-type defensin, expressed in Pichia pastoris (KHCAKLSKGWHGFCAPHKCSRYCIHHEGAYDGACLKHHHSKHIGCYCYYRHC; N-terminal alanine added; Fraxinus excelsior) | >12 | –
PD125.1.1: SEQ ID NO: 728 with N-terminal alanine; wild-type defensin-like protein, expressed in Pichia pastoris (VICPLESKRSKTWSGVCAQSKNCDKQCKTWERAKHGACHATYGKVLGVKACMHAGNK; N-terminal alanine added; listed as Prunus armeniaca) | 8 | –
PD123.1.1: SEQ ID NO: 719 with N-terminal alanine; Striga asiatica wild-type defensin, expressed in Pichia pastoris (RKCESKSQQFKGLCFIKANCAAVCRTEGFHSGHCRGFRRRCYCTKHC; N-terminal alanine added; listed as Striga asiatica) | 6 | –
PD95.1.1: SEQ ID NO: 598 with N-terminal alanine; Mimulus guttatus wild-type defensin, expressed in Pichia pastoris (RHCESPSHRFKGICVRKSNCAAICQTEGFSSGKCRGFRSRCVCIKHC; N-terminal alanine added; listed as Mimulus guttatus) | 0.75 | MIC against F. graminearum [1]: 0.75 µM
PD93.1.1: SEQ ID NO: 588 with N-terminal alanine; Fragaria vesca wild-type defensin, expressed in Pichia pastoris (KICEVPSKTFKGLCVKDRNCVVRCHSEGYGNGKCSHVRRQCMCLKICD; N-terminal alanine added; listed as Fragaria vesca) | >12 | –
PD87.1.1: SEQ ID NO: 560 with N-terminal alanine; Raphanus sativus wild-type defensin, expressed in Pichia pastoris (KLCQRPSGTWSGVCGNNNACKNQCIRLEKARHGSCNYVFPAHKCICYFPC; N-terminal alanine added; listed as Raphanus sativus) | 0.75 | MIC against F. graminearum [1]: 0.75 µM
PD86.1.1: SEQ ID NO: 555 with N-terminal alanine; Eryanthe guttata wild-type defensin, expressed in Pichia pastoris (SLCETPSRYFNGICFSRRNCGAICEKEGFSSGRCKAFKCVCGKDC; N-terminal alanine added; listed as Eryanthe guttata) | 6 | –
B1 | >12 | –
B2 | 1.5 | –
B3 | >12 | –
